# In ChEMBL document CHEMBL1201862, “PubChem BioAssay data set” (2004):
#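 Five compound concentrations were applied to cells in 96-well plates for 48 hours; endpoints were derived by simple linear interpolation of the resulting dose-response curve. GI50 = concentration required for 50% inhibition of growth.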 Active and inactive are the calls of the source. Rule as the data show it: active = GI50 up to about 1.1 µM and inactive = higher.
# Legend:
# Test in all cases: NCI anticancer screen, dose series, 48 h
# HCC 2998 = test system: HCC 2998
# RXF 393 = test system: RXF 393
# UACC-62 = test system: UACC-62
# OVCAR-4 = test system: OVCAR-4
# 786-0 = test system: 786-0
# EKVX = test system: EKVX
# LOX IMVI = test system: LOX IMVI
# A549 = test system: A549
# DLD-1 = test system: DLD-1
# HOP-62 = test system: HOP-62
# LXFL 529 = test system: LXFL 529
# HCT-15 = test system: HCT-15
# RPMI-8226 = test system: RPMI-8226
# U-251 = test system: U-251
# NCI-H23 = test system: NCI-H23
# ACHN = test system: ACHN
# CAKI-1 = test system: CAKI-1
# SNB-78 = test system: SNB-78
# M19-MEL = test system: M19-MEL
# SR = test system: SR
# HCT-116 = test system: HCT-116
# TK-10 = test system: TK-10
# SF-539 = test system: SF-539
# NCI-H460 = test system: NCI-H460
# DMS-114 = test system: DMS-114
# M14 = test system: M14
# SK-MEL-28 = test system: SK-MEL-28
# OVCAR-3 = test system: OVCAR-3
# SN12C = test system: SN12C
# K562 = test system: K562
# HOP-92 = test system: HOP-92
# OVCAR-5 = test system: OVCAR-5
# XF498 = test system: XF498
# SF-295 = test system: SF-295
# KM12 = test system: KM12
# OVCAR-8 = test system: OVCAR-8
# NCI-H226 = test system: NCI-H226
# SF-268 = test system: SF-268
# COLO 205 = test system: COLO 205
# SK-MEL-5 = test system: SK-MEL-5
# HL-60 = test system: HL-60
# CCRF-CEM = test system: CCRF-CEM
# KM-20L2 = test system: KM-20L2
# SW-620 = test system: SW-620
# RXF 631 = test system: RXF 631
# HT-29 = test system: HT-29
# SK-MEL-2 = test system: SK-MEL-2
# MOLT-4 = test system: MOLT-4
# IGROV-1 = test system: IGROV-1
# UACC-257 = test system: UACC-257
# SK-OV-3 = test system: SK-OV-3
# Malme-3M = test system: Malme-3M
# A498 = test system: A498
# HOP-18 = test system: HOP-18
# DMS-273 = test system: DMS-273
# UO-31 = test system: UO-31
# SNB-75 = test system: SNB-75
# SNB-19 = test system: SNB-19
# NCI-H522 = test system: NCI-H522
structure (smiles),measurement,setting,value
O=NN(CCCl)C(=O)NCc1ccc[n+]([O-])c1,GI50,HCC 2998,> 100 µM (inactive)
same,GI50,RXF 393,> 100 µM (inactive)
same,GI50,UACC-62,11.7 µM (inactive)
same,GI50,OVCAR-4,> 100 µM (inactive)
same,GI50,786-0,35.7 µM (inactive)
same,GI50,EKVX,> 100 µM (inactive)
same,GI50,LOX IMVI,70.6 µM (inactive)
same,GI50,A549,93.8 µM (inactive)
same,GI50,DLD-1,> 100 µM (inactive)
same,GI50,HOP-62,54 µM (inactive)
same,GI50,LXFL 529,> 100 µM (inactive)
same,GI50,HCT-15,> 100 µM
same,GI50,RPMI-8226,> 100 µM (inactive)
same,GI50,U-251,43.2 µM (inactive)
same,GI50,NCI-H23,> 100 µM (inactive)
same,GI50,ACHN,> 100 µM (inactive)
same,GI50,CAKI-1,> 100 µM (inactive)
same,GI50,SNB-78,> 100 µM (inactive)
same,GI50,M19-MEL,> 100 µM (inactive)
same,GI50,SR,33 µM (inactive)
same,GI50,HCT-116,> 100 µM (inactive)
same,GI50,TK-10,> 100 µM (inactive)
same,GI50,SF-539,43.9 µM (inactive)
same,GI50,NCI-H460,45.7 µM (inactive)
same,GI50,DMS-114,> 100 µM (inactive)
same,GI50,M14,> 100 µM (inactive)
same,GI50,SK-MEL-28,> 100 µM (inactive)
same,GI50,OVCAR-3,> 100 µM (inactive)
same,GI50,SN12C,> 100 µM (inactive)
same,GI50,K562,> 100 µM (inactive)
same,GI50,HOP-92,15.8 µM (inactive)
same,GI50,OVCAR-5,> 100 µM (inactive)
same,GI50,XF498,> 100 µM (inactive)
same,GI50,SF-295,64.1 µM (inactive)
same,GI50,KM12,> 100 µM (inactive)
same,GI50,OVCAR-8,> 100 µM (inactive)
same,GI50,NCI-H226,> 100 µM (inactive)
same,GI50,SF-268,37.2 µM (inactive)
same,GI50,COLO 205,> 100 µM (inactive)
same,GI50,SK-MEL-5,> 100 µM (inactive)
same,GI50,HL-60,76.4 µM (inactive)
same,GI50,CCRF-CEM,65.8 µM (inactive)
same,GI50,KM-20L2,> 100 µM (inactive)
same,GI50,SW-620,> 100 µM (inactive)
same,GI50,RXF 631,> 100 µM (inactive)
same,GI50,HT-29,> 100 µM (inactive)
same,GI50,SK-MEL-2,> 100 µM (inactive)
same,GI50,MOLT-4,60.8 µM (inactive)
same,GI50,IGROV-1,> 100 µM (inactive)
same,GI50,UACC-257,> 100 µM (inactive)
same,GI50,SK-OV-3,> 100 µM (inactive)
same,GI50,Malme-3M,> 100 µM (inactive)
CCC(C)COC(=O)c1ccc(/N=C\c2ccc(/C=N/c3ccc(C(=O)OCC(C)CC)cc3)cc2)cc1 (configuration not stated),GI50,HCC 2998,> 100 µM (inactive)
same,GI50,A498,> 100 µM (inactive)
same,GI50,HOP-18,> 100 µM (inactive)
same,GI50,RXF 393,> 100 µM (inactive)
same,GI50,DMS-273,> 100 µM (inactive)
same,GI50,UACC-62,> 100 µM (inactive)
same,GI50,OVCAR-4,> 100 µM (inactive)
same,GI50,786-0,> 100 µM (inactive)
same,GI50,EKVX,> 100 µM (inactive)
same,GI50,LOX IMVI,> 100 µM (inactive)
same,GI50,A549,> 100 µM (inactive)
same,GI50,DLD-1,> 100 µM (inactive)
same,GI50,HOP-62,> 100 µM (inactive)
same,GI50,LXFL 529,> 100 µM (inactive)
same,GI50,HCT-15,> 100 µM
same,GI50,RPMI-8226,> 100 µM (inactive)
same,GI50,U-251,> 100 µM (inactive)
same,GI50,UO-31,10.5 µM (inactive)
same,GI50,SNB-75,> 100 µM (inactive)
same,GI50,NCI-H23,> 100 µM (inactive)
same,GI50,ACHN,> 100 µM (inactive)
same,GI50,CAKI-1,> 100 µM (inactive)
same,GI50,SNB-78,> 100 µM (inactive)
same,GI50,SR,> 100 µM (inactive)
same,GI50,HCT-116,> 100 µM (inactive)
same,GI50,SNB-19,> 100 µM (inactive)
same,GI50,SF-539,> 100 µM (inactive)
same,GI50,NCI-H460,> 100 µM (inactive)
same,GI50,DMS-114,> 100 µM (inactive)
same,GI50,M14,> 100 µM (inactive)
same,GI50,SK-MEL-28,> 100 µM (inactive)
same,GI50,OVCAR-3,> 100 µM (inactive)
same,GI50,SN12C,> 100 µM (inactive)
same,GI50,K562,> 100 µM (inactive)
same,GI50,HOP-92,> 100 µM (inactive)
same,GI50,OVCAR-5,> 100 µM (inactive)
same,GI50,SF-295,> 100 µM (inactive)
same,GI50,OVCAR-8,> 100 µM (inactive)
same,GI50,NCI-H226,> 100 µM (inactive)
same,GI50,SF-268,> 100 µM (inactive)
same,GI50,COLO 205,> 100 µM (inactive)
same,GI50,SK-MEL-5,> 100 µM (inactive)
same,GI50,HL-60,> 100 µM (inactive)
same,GI50,CCRF-CEM,> 100 µM (inactive)
same,GI50,KM-20L2,> 100 µM (inactive)
same,GI50,SW-620,> 100 µM (inactive)
same,GI50,RXF 631,> 100 µM (inactive)
same,GI50,HT-29,> 100 µM (inactive)
same,GI50,SK-MEL-2,> 100 µM (inactive)
same,GI50,MOLT-4,> 100 µM (inactive)
same,GI50,IGROV-1,> 100 µM (inactive)
same,GI50,UACC-257,> 100 µM (inactive)
same,GI50,SK-OV-3,> 100 µM (inactive)
same,GI50,NCI-H522,> 100 µM (inactive)
same,GI50,Malme-3M,> 100 µM (inactive)
